We go through 4 molecules from patent US11578083B2, “Pyrimidinium compounds and their mixtures for combating animal pests” (BASF SE, priority 2017, dated 2023).

Assay type in all cases: in vivo
The test system of test [1] is Thrips (Dichromothrips corbetti). As to the kind of experiment: B.4 Thrips floral-immersion test. The conditions noted are these: 72 h. Here is the method: B.4 Thrips (Dichromothrips Corbetti):
Dichromothrips corbetti adults used for bioassay are obtained from a colony maintained continuously under laboratory conditions. For testing purposes, the test compound is diluted in a 1:1 mixture of acetone:water (vol:vol), plus 0.01% vol/vol Alkamuls® EL 620 surfactant.
Thrips potency of each compound is evaluated by using a floral-immersion technique. Plastic petri dishes are used as test arenas. All petals of individual, intact orchid flowers are dipped into treatment solution and allowed to dry. Treated flowers are placed into individual petri dishes along with about 20 adult thrips. The petri dishes v then covered with lids. All test arenas are held under continuous light and a temperature of about 28° C. for duration of the assay. After 3 days, the numbers of live thrips are counted on each flower, and along inner walls of each petri dish. The percent mortality is recorded 72 hours after treatment.

Test [2] relates to Chilo suppressalis. The test is described as follows: B.3a Rice stem borer vial bioassay. The conditions noted are these: 72 h. Here is the method:
Field-collected rice straws were washed with tap water and cut for a certain of length. Straws were air dried before placing individually in vials (=replicate, 3×). About 125 μl test solution was sprayed per vial. Treated rice straws in vials were air dried under the laboratory hood. After air-drying, each straw was inoculated with 10 newly-emerged (0-day old) stem borer larvae. Vials were then covered. Set-up was kept in a holding room maintained at 27° C. and 65% RH for three days. At 3 days after inoculation, rice straws were manually dissected for larval mortality assessment. The data (Table C) show activity against two species of rice stem borers.

In test [3] the test system is Rice brown plant hopper (Nilaparvata lugens). As to the kind of experiment: B.2 Rice brown plant hopper, sprayed rice seedlings. The conditions noted are these: 72 h. Here is the method: B.2 Rice Brown Plant Hopper (Nilaparvata lugens):
Rice seedlings are cleaned and washed 24 hours before spraying. The active compounds are formulated in 50:50 acetone:water (vol:vol) and 0.1% vol/vol surfactant (EL 620) is added. Potted rice seedlings are sprayed with 5 ml test solution, air dried, placed in cages and inoculated with 10 adults. Treated rice plants are kept at about 28-29° C. and relative humidity of about 50-60%. Percent mortality is recorded after 72 hours.

The test system of test [4] is Chilo suppressalis. As to the kind of experiment: B.3b Rice striped stem borer, foliar spraying. Here is the method:
All three pots (=replicates) of four to five-week old potted rice per treatment were simultaneously sprayed with 12 mL test solution. After spray application, plants were air dried in the laboratory before inoculation. After air-drying, 5 to 6-day old egg masses of CHILSU were used for inoculation. All stem borer-infested potted rice plants were transferred inside the screenhouse 1 day after inoculation until the final assessment. […] Whole plant damage was assessed before cutting each hill at the basal portion for tiller dissection. Each dissected tiller was inspected looking for dead (if possible) and alive stemborer larvae.

Test [5] concerns Chilo suppressalis. The test is described as follows: B.3c Rice striped stem borer, drench application. The conditions noted are these: Chilo suppressalis neonates, Dose 10 mg, 14 DAT. An excerpt:
The test solution was poured onto the soil of each potted rice plant (=replicate) with five tillers each pot. After drench application, treated plants were transferred inside the screenhouse for three days prior to stemborer inoculation inside the laboratory. Three days after drench application, 5 to 6-day old egg masses of CHILSU were used for inoculation. All stemborer-infested potted rice plants were transferred inside the screenhouse 1 day after inoculation until the final assessment. […] Whole plant damage was assessed before cutting each hill at the basal portion for tiller dissection. Each dissected tiller was inspected looking for dead (if possible) and alive stemborer larvae.

Test [6] has as its system Cowpea aphid (Aphis craccivora). The test is described as follows: B.3 Cowpea aphid leaf disk test. The conditions noted are these: foliar, 120 h. Here is the method:
If not otherwise specified, the test solutions are prepared as follows:
The active compound is dissolved at the desired concentration in a mixture of 1:1 (vol:vol) distilled water: acetone. The test solution is prepared at the day of use.
B.3 Cowpea aphid (Aphis craccivora):
For evaluating control of Cowpea aphid through contact or systemic means the test unit consists of 24-well-microtiter plates containing broad bean leaf disks.
The compounds are formulated using a solution containing 75% v/v water and 25% v/v DMSO. Different concentrations of formulated compounds are sprayed onto the leaf disks at 2.5 μl, using a custom built micro atomizer, at two replications.
After application, the leaf disks are air-dried and 5-8 adult aphids placed on the leaf disks inside the microtiter plate wells. The aphids are then allowed to suck on the treated leaf disks and incubated at about 23±1° C. and about 50±5% relative humidity for 5 days. Aphid mortality and fecundity is then visually assessed.

The test system of test [7] is Rice green leafhopper (Nephotettix virescens). As to the kind of experiment: B.1 Rice green leafhopper, sprayed rice seedlings. The conditions noted are these: 72 h. Here is the method:
B.1 Rice Green Leafhopper (Nephotettix virescens):
Rice seedlings are cleaned and washed 24 hours before spraying. The active compounds are formulated in 50:50 acetone:water (vol:vol), and 0.1% vol/vol surfactant (EL 620) is added. Potted rice seedlings are sprayed with 5 ml test solution, air dried, placed in cages and inoculated with 10 adults. Treated rice plants are kept at about 28-29° C. and relative humidity of about 50-60%. Percent mortality is recorded after 72 hours.

Test [8] deals with yellow fever mosquito (Aedes aegypti). The conditions noted are these: in vivo. Here is the method: For evaluating control of yellow fever mosquito (Aedes aegypti) the test unit consisted of 96-well-microtiter plates containing 200 μl of tap water per well and 5-15 freshly hatched A. aegypti larvae.
The compounds or mixtures were formulated using a solution containing 75% water and 25% DMSO. Different concentrations of formulated compounds or mixtures were sprayed onto the insect diet at 2.5 μl, using a custom built micro atomizer, at two replications.
(§1) For experimental mixtures in these tests identical volumes of both mixing partners at the desired concentrations respectively, were mixed together.
After application, microtiter plates were incubated at 28±1° C., 80±5% RH for 2 days. Larval mortality was then visually assessed.

For test [9], the system named is Greenhouse Whitefly (Trialeurodes vaporariorum). The test is described as follows: Greenhouse Whitefly, egg plant leaf disk (table 5, mixtures). The conditions noted are these: solo application Oxazosulfyl, use rate 50 ppm. Here is the method:
For evaluating control of Greenhouse Whitefly (Trialeurodes vaporariorum) the test unit consisted of 96-well-microtiter plates containing a leaf disk of egg plant leaf disk with white fly eggs. The compounds or mixtures were formulated using a solution containing 75% water and 25% DMSO. Concentrations of formulated compounds or mixtures were sprayed onto the […] at 2.5 μl, using a custom built micro atomizer, at two replications.
as §1
After application, microtiter plates were incubated at 23±1° C., 65±5% RH for 6 days. Mortality of hatched crawlers was then visually assessed.

Test [10] relates to brown planthopper (Nilaparvata lugens). As to the kind of experiment: Test 6 brown planthopper, foliar spray (mixtures). The conditions noted are these: Table 6.2, after 7 days, solo application Spinetoram, use rate 70 ppm. Here is the method: For evaluating control of brown planthopper (Nilaparvata lugens) by foliar spray method. Clean potted rice seedlings with upper leaf portion cut are properly labeled. Placed three potted rice plants per treatment concentration/combination on top of the rotating disc (270 mm) and sprayed with the 12 mL spray solution. Treated plants are allowed to air-dry in the laboratory for about an hour. After air-drying, covered each treated rice plant. Each treated plant was infested with brown planthoppers using a suction vacuum. Plants are maintained at 27° C.±1° C., 50±5% RH and 24 hours light conditions in a holding room. Percent mortality is recorded 7 days after infestation by counting both the dead and alive brown planthoppers on the plants and on the water.

Test [11] relates to vetch aphid (Megoura viciae). As to the kind of experiment: Test 1 vetch aphid, leaf disks (mixtures). The conditions noted are these: Table 1, solo application Spinetoram, use rate 2 ppm. An excerpt:
Synergism can be described as an interaction where the combined effect of two or more compounds is greater than the sum of the individual effects of each of the compounds. The presence of a synergistic effect in terms of percent control, between two mixing partners (X and Y) can be calculated using the Colby equation (Colby, S. R., 1967, Calculating Synergistic and Antagonistic Responses in Herbicide Combinations, Weeds, 15, 20-22):
When the observed combined control effect is greater than the expected combined control effect (E), then the combined effect is synergistic.
The analysis of synergism or antagonism between the mixtures or compositions was determined using Colby's equation.
For evaluating control of vetch aphid (Megoura viciae) through contact or systemic means the test unit consisted of 24-well-microtiter plates containing broad bean leaf disks.
The compounds or mixtures were formulated using a solution containing 75% water and 25% DMSO. Concentrations of formulated compounds or mixtures were sprayed onto the leaf disks at 2.5 μl, using a custom built micro atomizer, at two replications. […]
After application, the leaf disks were air-dried and 5-8 adult aphids placed on the leaf disks inside the microtiter plate wells. […] Aphid mortality and fecundity was then visually assessed.

In test [12] the test system is boll weevil (Anthonomus grandis). The test is described as follows: Test 3 boll weevil, insect diet with eggs (mixtures). The conditions noted are these: Table 3.2, solo application Spinetoram, use rate 4 ppm. Here is the method:
For evaluating control of boll weevil (Anthonomus grandis) the test unit consisted of 24-well-microtiter plates containing an insect diet and 20-30 A. grandis eggs.
The compounds or mixtures were formulated using a solution containing 75% water and 25% DMSO. Concentrations of formulated compounds or mixtures were sprayed onto the insect diet at 20 μl, using a custom built micro atomizer, at two replications.
as §1
After application, microtiter plates were incubated at 23±1° C., 50±5% RH for 5 days. Egg and larval mortality was then visually assessed.

Broadly, the mortality is the percentage killed. `C[n+]1c2n(c([O-])c(-c3ccccc3)c1=O)C(c1cnc(Cl)s1)CS2` (racemic) [Compound I-1, 3-(2-chlorothiazol-5-yl)-8-methyl-7-oxo-6-phenyl-2,3-dihydrothiazolo[3,2-a]pyrimidin-8-ium-5-olate] had a mortality at 10 ppm in [1] of 73%. For the same molecule, the mortality at 300 ppm in the test on Chilo suppressalis [2] stood at 80%. In addition, the mortality at 1 ppm in [3] came out at 54%; in test [6], 80%; in [7] it was 50%. For the same molecule, the “Feeding damage (%)” value in the test on Chilo suppressalis [4] (Chilo suppressalis neonates, foliar spraying, Dose 200 ppm, 14 DAT) came to 15%; with Chilo suppressalis [5] it was 15%. Besides, the mortality at 200 ppm in the test on Chilo suppressalis [4] (Chilo suppressalis, foliar, 336 h) was determined as 96%.

Turning to `Cc1cccc2sc3nncn3c12` [Tricyclazol, tricyclazole, reference compound], in [8], the Average control % stood at 50%.

For `CCS(=O)(=O)c1cccnc1-c1nc2cc(S(=O)(=O)C(F)(F)F)ccc2o1` [Oxazosulfyl, 2-(3-ethylsulfonyl-2-pyridyl)-5-(trifluoromethylsulfonyl)-1,3-benzoxazole, reference compound], the Average control % in test [9] is 50%.

spinetoram [reference compound]: the Average control % worked out at 62% in test [10], 50% in [11] and 0% in [12].
